Measurements reported in US20250177469A1, “SANGUISORBA OFFICINALIS LINNE EXTRACT COMPOSITION INHIBITING 3CL PROTEASE AND RDRP ACTIVITY OF SARS-COV-2” (QGENETICS CO., LTD., priority 2021, published 2025).

Tested on: SARS-CoV-2
Experiment: CPE inhibition of SARS-CoV-2 in VERO-E6 cells
Format: cell-based
Conditions: 200 TCID50, 3 days, average of three repeats, FIG. 4

Compound | average CPE inhibition value [µg/mL]
CC(C)C[C@H](NC(=O)OCc1ccccc1)C(=O)N[C@@H](C[C@@H]1CCNC1=O)C(O)S(=O)(=O)[O-].[Na+] (some centres unmarked) [GC376] | 3.125
CCC(CC)COC(=O)[C@H](C)N[P@](=O)(OC[C@H]1O[C@@](C#N)(c2ccc3c(N)ncnn23)[C@H](O)[C@@H]1O)Oc1ccccc1 [remdesivir] | 8.333
